Tests used:
[1] = tested on: Mus musculus; test: Anticonvulsant activity in Mus musculus Swiss albino (mouse) assessed as protection against pentylenetetrazole-induced seizures at 100 mg/kg, ip administered 1 hr prior to pentylenetetrazole-challenge measured up to 1 hr relative to control; type: functional; settings: route intraperitoneal
[2] = tested on: Mus musculus; test: Anticonvulsant activity in Mus musculus Swiss albino (mouse) assessed as protection against pentylenetetrazole-induced seizures at 75 mg/kg, ip administered 1 hr prior to pentylenetetrazole-challenge measured up to 1 hr relative to control; type: functional; settings: route intraperitoneal
[3] = tested on: Mus musculus; test: Anticonvulsant activity in ip dosed Mus musculus Swiss albino (mouse) assessed as protection against pentylenetetrazole-induced seizures administered 1 hr prior to pentylenetetrazole-challenge measured up to 1 hr relative to phenobarbital; type: functional
[4] = tested on: Mus musculus; test: Anticonvulsant activity in Mus musculus Swiss albino (mouse) assessed as protection against pentylenetetrazole-induced seizures at 50 mg/kg, ip administered 1 hr prior to pentylenetetrazole-challenge measured up to 1 hr relative to control; type: functional; settings: route intraperitoneal
[5] = tested on: Mus musculus; test: Anticonvulsant activity in ip dosed Mus musculus Swiss albino (mouse) assessed as protection against pentylenetetrazole-induced seizures administered 1 hr prior to pentylenetetrazole-challenge measured up to 1 hr; type: functional; settings: read-out: PD50
[6] = tested on: Mus musculus; test: Anticonvulsant activity in Mus musculus Swiss albino (mouse) assessed as protection against pentylenetetrazole-induced seizures at 20 mg/kg, ip administered 1 hr prior to pentylenetetrazole-challenge measured up to 1 hr relative to control; type: functional; settings: route intraperitoneal
[7] = tested on: Mus musculus; test: Anticonvulsant activity in Mus musculus Swiss albino (mouse) assessed as protection against pentylenetetrazole-induced seizures at 10 mg/kg, ip administered 1 hr prior to pentylenetetrazole-challenge measured up to 1 hr relative to control; type: functional; settings: route intraperitoneal
[8] = tested on: Mus musculus; test: Toxicity in Mus musculus albino (mouse) assessed as mortality at 100 mg/kg, ip after 24 hr; type: organism-based; parameters: dose 100 mg/kg, route intraperitoneal; settings: in vivo
[9] = tested on: Mus musculus; test: Toxicity in Mus musculus albino (mouse) assessed as mortality at 160 to 400 mg/kg, ip after 24 hr; type: organism-based; parameters: dose 160-400 mg/kg, route intraperitoneal; settings: in vivo
[10] = tested on: Mus musculus; test: Anticonvulsant activity in Mus musculus Swiss albino (mouse) assessed as protection against pentylenetetrazole-induced seizures at 30 mg/kg, ip administered 1 hr prior to pentylenetetrazole-challenge measured up to 1 hr relative to control; type: functional; settings: route intraperitoneal
[11] = Toxicity in ip dosed Mus musculus albino (mouse) after 24 hr; type: organism-based; settings: in vivo
[12] = tested on: Mus musculus; test: Toxicity in Mus musculus albino (mouse) assessed as mortality at 300 mg/kg, ip after 24 hr; type: organism-based; parameters: dose 300 mg/kg, route intraperitoneal; settings: in vivo
[13] = tested on: Mus musculus; test: Toxicity in Mus musculus albino (mouse) assessed as mortality at 600 to 2400 mg/kg, ip after 24 hr; type: organism-based; parameters: dose 600-2400 mg/kg, route intraperitoneal; settings: in vivo

`N#Cc1c(NC(=O)CCCCl)c(C(=O)Nc2ccc(Cl)cc2)n2c1CCC2` gave an Activity [1] of 40%, an Activity [2] of 40% and an Activity [3] of 19.7%. It also gave an Activity [4] of 20% and an ED50 [5] of 117 mg/kg.

In the case of `CCC1(c2ccccc2)C(=O)NC(=O)NC1=O` [PHENOBARBITAL], the Activity [6] is reported as 60%, the Activity [7] is reported as 40% and the Activity [8] is reported as “Non-toxic”. For the same molecule, the Activity [9] was “Toxic”, the Activity [10] was 100% and the ED50 [5] was 14.4 mg/kg. For the same molecule, the LD50 at 24 h [11] was 251 mg/kg.

`N#Cc1c(NC(=O)CCl)c(C(=O)Nc2ccccc2)n2c1CCC2` gave an Activity [1] of 40%, an Activity [2] of 20% and an Activity [3] of 17.3%. For the same molecule, the Activity [4] was 0% and the ED50 [5] was 112 mg/kg.

For `Cc1ccc(N2CC(=O)N(C)c3c(C#N)c4n(c3C2=O)CCC4)cc1`, the Activity [1] was 20%, the Activity [2] was 20% and the Activity [3] was 11.4%. It also gave an Activity [4] of 0% and an ED50 [5] of 167 mg/kg.

Molecule `N#Cc1c(NC(=O)CCCCl)c(C(=O)Nc2ccccc2)n2c1CCC2` has an Activity [1] of 60%, an Activity [2] of 40% and an Activity [3] of 23.7%. For the same molecule, the Activity [4] was 0% and the ED50 [5] was 88.9 mg/kg.

Molecule `Cc1ccc(NC(=O)c2c(NC(=O)CCCCl)c(C#N)c3n2CCC3)cc1` has an Activity [1] of 40%, an Activity [2] of 20% and an Activity [3] of 19.4%. It also gave an Activity [4] of 0% and an ED50 [5] of 112 mg/kg.

With `CN1C(=O)CN(c2ccccc2)C(=O)c2c1c(C#N)c1n2CCC1` the Activity [1] was 40%, the Activity [2] was 20% and the Activity [3] was 16.2%. For the same molecule, the Activity [4] was 0% and the ED50 [5] was 112 mg/kg.

Work on `N#Cc1c2c(n3c1CCC3)C(=O)N(c1ccccc1)CC(=O)N2` yielded an Activity [1] of 40%, an Activity [2] of 40% and an Activity [3] of 14.9%. The Activity [4] was 20% and the ED50 [5] was 117 mg/kg.

In the case of `Cc1ccc(NC(=O)c2c(N3CCCC3=O)c(C#N)c3n2CCC3)cc1`, the Activity [1] is reported as 0%, the Activity [12] is reported as “Non-toxic” and the Activity [2] is reported as 0%. The Activity [3] was 67.9%, the Activity [4] was 40% and the Activity [13] was “Toxic”. It also gave an ED50 [5] of 29.2 mg/kg and an LD50 at 24 h [11] of 1010 mg/kg.

Work on `Cc1ccc(NC(=O)c2c(NC(=O)CCl)c(C#N)c3n2CCC3)cc1` yielded an Activity [1] of 40%, an Activity [2] of 40% and an Activity [3] of 17.4%. It also gave an Activity [4] of 20% and an ED50 [5] of 117 mg/kg.

Work on `CN1C(=O)CN(c2ccc(Cl)cc2)C(=O)c2c1c(C#N)c1n2CCC1` yielded an Activity [1] of 40%, an Activity [2] of 20% and an Activity [3] of 15.1%. It also gave an Activity [4] of 20% and an ED50 [5] of 133 mg/kg.

In the case of `N#Cc1c(N2CCCC2=O)c(C(=O)Nc2ccc(Cl)cc2)n2c1CCC2`, the Activity [1] is reported as 0%, the Activity [2] is reported as 20% and the Activity [3] is reported as 55.8%. It also gave an Activity [4] of 40% and an ED50 [5] of 37.5 mg/kg.

With `N#Cc1c(N2CCCC2=O)c(C(=O)Nc2ccccc2)n2c1CCC2` the Activity [1] was 0%, the Activity [2] was 20% and the Activity [3] was 34.2%. For the same molecule, the Activity [4] was 60% and the ED50 [5] was 55.6 mg/kg.

`N#Cc1c(NC(=O)CCl)c(C(=O)Nc2ccc(Cl)cc2)n2c1CCC2` showed an Activity [1] of 60%, an Activity [2] of 40% and an Activity [3] of 24.1%. For the same molecule, the Activity [4] was 0% and the ED50 [5] was 88.9 mg/kg.

`Cc1ccc(N2CC(=O)Nc3c(C#N)c4n(c3C2=O)CCC4)cc1` showed an Activity [1] of 20%, an Activity [2] of 20% and an Activity [3] of 10.9%. It also gave an Activity [4] of 0% and an ED50 [5] of 167 mg/kg.

In the case of `N#Cc1c2c(n3c1CCC3)C(=O)N(c1ccc(Cl)cc1)CC(=O)N2`, the Activity [1] is reported as 20%, the Activity [2] is reported as 0% and the Activity [3] is reported as 10.6%. It also gave an Activity [4] of 0% and an ED50 [5] of 183 mg/kg.
